Data published in ChEMBL document CHEMBL1201862, “PubChem BioAssay data set” (2004).
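Assay format: 96-well plates, 48-hour exposure. Here, GI50 denotes the concentration required for 50% inhibition of growth.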 Active and inactive are the calls of the source. Cut-off read from the data, not from the text of the source: active = GI50 up to about 1.1 µM and inactive = higher.

How the values were obtained:
Assay in all cases: inhibition of tumour cell growth, NCI panel, 48 h
[1] = test system: HOP-62
[2] = test system: SK-MEL-2
[3] = test system: HOP-92
[4] = test system: Hs-578T
[5] = test system: KM12
[6] = test system: K562
[7] = test system: TK-10
[8] = test system: CCRF-CEM
[9] = test system: MOLT-4
[10] = test system: EKVX
[11] = test system: HCC 2998
[12] = test system: NCI-H460
[13] = test system: HCT-15
[14] = test system: SF-295
[15] = test system: NCI-H226
[16] = test system: SK-MEL-28
[17] = test system: SW-620
[18] = test system: 786-0
[19] = test system: SK-MEL-5
[20] = test system: ACHN
[21] = test system: MDA-MB-435
[22] = test system: PC-3
[23] = test system: UACC-62
[24] = test system: RXF 393
[25] = test system: HT-29
[26] = test system: CAKI-1
[27] = test system: RPMI-8226
[28] = test system: OVCAR-8
[29] = test system: BT-549
[30] = test system: OVCAR-4
[31] = test system: NCI-H522
[32] = test system: LOX IMVI
[33] = test system: HCT-116
[34] = test system: SF-268
[35] = test system: HL-60
[36] = test system: COLO 205
[37] = test system: A549
[38] = test system: M14
[39] = test system: Malme-3M
[40] = test system: MDA-MB-231
[41] = test system: A498
[42] = test system: U-251
[43] = test system: IGROV-1
[44] = test system: SN12C
[45] = test system: OVCAR-5
[46] = test system: SK-OV-3
[47] = test system: SNB-19
[48] = test system: NCI/ADR-RES
[49] = test system: MCF7
[50] = test system: SNB-75
[51] = test system: MDA-N
[52] = test system: SF-539
[53] = test system: UACC-257
[54] = test system: SR
[55] = test system: UO-31
[56] = test system: OVCAR-3
[57] = test system: NCI-H23
[58] = test system: DU-145
[59] = test system: T47D

Cc1ccc(-c2c(C#N)c(-c3ccc(N(C)C)cc3)c(C#N)c(=O)n2NS(=O)(=O)c2ccccc2)cc1
GI50 [1]: 46.2 µM (inactive)
GI50 [2]: 37.5 µM (inactive)
GI50 [3]: > 100 µM (inactive)
GI50 [4]: 33.7 µM (inactive)
GI50 [5]: 31.3 µM (inactive)
GI50 [6]: 44.9 µM (inactive)
GI50 [7]: 92.3 µM (inactive)
GI50 [8]: 29.5 µM (inactive)
GI50 [9]: 16.4 µM (inactive)
GI50 [10]: 96.6 µM (inactive)
GI50 [11]: 18.3 µM (inactive)
GI50 [12]: 18.1 µM (inactive)
GI50 [13]: 27.7 µM
GI50 [14]: 23.1 µM (inactive)
GI50 [15]: > 100 µM (inactive)
GI50 [16]: 45.9 µM (inactive)
GI50 [17]: 39.2 µM (inactive)
GI50 [18]: 22.9 µM (inactive)
GI50 [19]: 17.3 µM (inactive)
GI50 [20]: 42.7 µM (inactive)
GI50 [21]: 43.7 µM (inactive)
GI50 [22]: 33.4 µM (inactive)
GI50 [23]: 30.8 µM (inactive)
GI50 [24]: 22.7 µM (inactive)
GI50 [25]: 38.5 µM (inactive)
GI50 [26]: 31.7 µM (inactive)
GI50 [27]: 8.67 µM (inactive)
GI50 [28]: 44.5 µM (inactive)
GI50 [29]: 37.2 µM (inactive)
GI50 [30]: 19.9 µM (inactive)
GI50 [31]: 42.3 µM (inactive)
GI50 [32]: 28 µM (inactive)
GI50 [33]: 30.7 µM (inactive)
GI50 [34]: 79.3 µM (inactive)
GI50 [35]: 44.8 µM (inactive)
GI50 [36]: 40.8 µM (inactive)
GI50 [37]: 36.5 µM (inactive)
GI50 [38]: 25 µM (inactive)
GI50 [39]: 87.9 µM (inactive)
GI50 [40]: > 100 µM (inactive)
GI50 [41]: 51.4 µM (inactive)
GI50 [42]: 47.9 µM (inactive)
GI50 [43]: 63.2 µM (inactive)
GI50 [44]: 55.7 µM (inactive)
GI50 [45]: > 100 µM (inactive)
GI50 [46]: 62.1 µM (inactive)
GI50 [47]: 63.7 µM (inactive)
GI50 [48]: 39.4 µM (inactive)
GI50 [49]: 26.1 µM (inactive)
GI50 [50]: 37 µM (inactive)
GI50 [51]: 45.9 µM (inactive)
GI50 [52]: 21.9 µM (inactive)
GI50 [53]: > 100 µM (inactive)

CN(CCCNC(=O)c1cn(C)c2c1Cc1ccccc1-2)CCCNC(=O)c1cn(C)c2c1Cc1ccccc1-2
GI50 [1]: 12.9 µM (inactive)
GI50 [2]: 16.7 µM (inactive)
GI50 [54]: 1.45 µM (inactive)
GI50 [3]: 2.13 µM (inactive)
GI50 [4]: 5.85 µM (inactive)
GI50 [5]: 13 µM (inactive)
GI50 [6]: 2.78 µM (inactive)
GI50 [7]: 11.6 µM (inactive)
GI50 [8]: 2.74 µM (inactive)
GI50 [9]: 3.35 µM (inactive)
GI50 [10]: 9.4 µM (inactive)
GI50 [12]: 8.89 µM (inactive)
GI50 [13]: 11.2 µM
GI50 [55]: 9.16 µM (inactive)
GI50 [14]: 12.3 µM (inactive)
GI50 [15]: 17.2 µM (inactive)
GI50 [16]: 10.8 µM (inactive)
GI50 [17]: 3.66 µM (inactive)
GI50 [18]: 4.83 µM (inactive)
GI50 [19]: 14.2 µM (inactive)
GI50 [20]: 10.5 µM (inactive)
GI50 [21]: 2.21 µM (inactive)
GI50 [22]: 10.8 µM (inactive)
GI50 [23]: 13.8 µM (inactive)
GI50 [24]: 16.8 µM (inactive)
GI50 [56]: 15.6 µM (inactive)
GI50 [25]: 2.32 µM (inactive)
GI50 [26]: 14.9 µM (inactive)
GI50 [27]: 21.3 µM (inactive)
GI50 [28]: 5.86 µM (inactive)
GI50 [29]: 17.1 µM (inactive)
GI50 [30]: 12.8 µM (inactive)
GI50 [32]: 6.82 µM (inactive)
GI50 [33]: 9.33 µM (inactive)
GI50 [34]: 5.14 µM (inactive)
GI50 [35]: 13.3 µM (inactive)
GI50 [36]: 1.9 µM (inactive)
GI50 [37]: 15.8 µM (inactive)
GI50 [38]: 3.81 µM (inactive)
GI50 [39]: 11.7 µM (inactive)
GI50 [40]: 13.6 µM (inactive)
GI50 [41]: 11.9 µM (inactive)
GI50 [42]: 7.43 µM (inactive)
GI50 [43]: 6.24 µM (inactive)
GI50 [44]: 13.4 µM (inactive)
GI50 [45]: 15.6 µM (inactive)
GI50 [46]: 16.5 µM (inactive)
GI50 [57]: 14.2 µM (inactive)
GI50 [47]: 11.4 µM (inactive)
GI50 [48]: 12.5 µM (inactive)
GI50 [49]: 10.2 µM (inactive)
GI50 [51]: 3.58 µM (inactive)
GI50 [52]: 13.8 µM (inactive)
GI50 [53]: 6.12 µM (inactive)

Oc1c([Si](c2ccccc2)(c2ccccc2)c2ccccc2)cc2ccccc2c1-c1c(O)c([Si](c2ccccc2)(c2ccccc2)c2ccccc2)cc2ccccc12
GI50 [1]: 98.9 µM (inactive)
GI50 [2]: > 100 µM (inactive)
GI50 [54]: > 100 µM (inactive)
GI50 [3]: > 100 µM (inactive)
GI50 [4]: > 100 µM (inactive)
GI50 [5]: > 100 µM (inactive)
GI50 [6]: 34.1 µM (inactive)
GI50 [7]: > 100 µM (inactive)
GI50 [8]: > 100 µM (inactive)
GI50 [9]: 42.2 µM (inactive)
GI50 [10]: > 100 µM (inactive)
GI50 [11]: > 100 µM (inactive)
GI50 [12]: > 100 µM (inactive)
GI50 [13]: > 100 µM
GI50 [55]: > 100 µM (inactive)
GI50 [14]: > 100 µM (inactive)
GI50 [16]: > 100 µM (inactive)
GI50 [17]: > 100 µM (inactive)
GI50 [18]: > 100 µM (inactive)
GI50 [58]: > 100 µM (inactive)
GI50 [19]: > 100 µM (inactive)
GI50 [20]: > 100 µM (inactive)
GI50 [21]: > 100 µM (inactive)
GI50 [22]: > 100 µM (inactive)
GI50 [23]: > 100 µM (inactive)
GI50 [24]: > 100 µM (inactive)
GI50 [25]: > 100 µM (inactive)
GI50 [26]: > 100 µM (inactive)
GI50 [27]: > 100 µM (inactive)
GI50 [28]: > 100 µM (inactive)
GI50 [30]: > 100 µM (inactive)
GI50 [59]: > 100 µM (inactive)
GI50 [31]: > 100 µM (inactive)
GI50 [32]: > 100 µM (inactive)
GI50 [34]: > 100 µM (inactive)
GI50 [35]: > 100 µM (inactive)
GI50 [36]: > 100 µM (inactive)
GI50 [37]: > 100 µM (inactive)
GI50 [38]: > 100 µM (inactive)
GI50 [39]: > 100 µM (inactive)
GI50 [40]: > 100 µM (inactive)
GI50 [41]: > 100 µM (inactive)
GI50 [42]: > 100 µM (inactive)
GI50 [43]: > 100 µM (inactive)
GI50 [45]: > 100 µM (inactive)
GI50 [46]: > 100 µM (inactive)
GI50 [57]: > 100 µM (inactive)
GI50 [47]: > 100 µM (inactive)
GI50 [48]: > 100 µM (inactive)
GI50 [49]: > 100 µM (inactive)
GI50 [50]: > 100 µM (inactive)
GI50 [51]: > 100 µM (inactive)
GI50 [52]: > 100 µM (inactive)
GI50 [53]: > 100 µM (inactive)

C/C(=N\c1ccc(Cl)c(Cl)c1)c1ccncc1
GI50 [1]: > 100 µM (inactive)
GI50 [3]: > 100 µM (inactive)
GI50 [4]: > 100 µM (inactive)
GI50 [5]: > 100 µM (inactive)
GI50 [6]: > 100 µM (inactive)
GI50 [7]: > 100 µM (inactive)
GI50 [8]: > 100 µM (inactive)
GI50 [9]: > 100 µM (inactive)
GI50 [11]: > 10 µM (inactive)
GI50 [12]: > 100 µM (inactive)
GI50 [14]: > 100 µM (inactive)
GI50 [15]: > 100 µM (inactive)
GI50 [16]: > 100 µM (inactive)
GI50 [17]: > 100 µM (inactive)
GI50 [18]: > 100 µM (inactive)
GI50 [22]: > 100 µM (inactive)
GI50 [23]: > 100 µM (inactive)
GI50 [24]: > 100 µM (inactive)
GI50 [56]: > 100 µM (inactive)
GI50 [25]: > 100 µM (inactive)
GI50 [28]: > 100 µM (inactive)
GI50 [29]: > 100 µM (inactive)
GI50 [30]: > 100 µM (inactive)
GI50 [31]: > 100 µM (inactive)
GI50 [32]: > 100 µM (inactive)
GI50 [33]: > 100 µM (inactive)
GI50 [34]: > 100 µM (inactive)
GI50 [36]: > 100 µM (inactive)
GI50 [38]: > 100 µM (inactive)
GI50 [40]: > 100 µM (inactive)
GI50 [42]: > 100 µM (inactive)
GI50 [44]: > 100 µM (inactive)
GI50 [46]: > 100 µM (inactive)
GI50 [57]: > 100 µM (inactive)
GI50 [47]: > 100 µM (inactive)
GI50 [48]: > 100 µM (inactive)
GI50 [50]: > 100 µM (inactive)
GI50 [51]: > 100 µM (inactive)
